Experimental data reported in article PMC4802734 (Cell Chemical Biology, 2016).
Entries after “also recorded” stand apart in the source; their conditions may differ.

How the values were obtained:
[1] = system: intracellular ActA expression of L. monocytogenes in Caco-2 cells; assay: Intracellular ActA levels in infected Caco-2 cells, compound added 30 min post infection; type: cell-based, Listeria monocytogenes; settings: 100 μM added 30 min post infection, 4 hr post infection
Procedure: (§1) (D) Compound 2 abrogates intracellular induction of ActA expression. Caco-2 cells were infected with the indicated bacteria and treated 30 min post infection with 100 μM of 2 or the equivalent volume of DMSO (C). Total cellular protein was extracted at indicated time points after addition of compound and subjected to SDS-PAGE. The levels of ActA protein were visualized by western blot using a specific antibody.
ActA western blotting detection for intracellular bacteria: The collected bacterial pellets were resuspended in 100µl 1x sample buffer (Laemmli, 1970) and lysed by incubation at 98 °C for 20 min. 10µL of each sample was subjected to SDS-PAG and Western blotting using anti-ActA […]
Production of antibodies against ActA was conducted by Agrisera. The antibodies were raised in rabbits, against a peptide mix consisting of Y21T(Kocks et al., 1993) and (NH2-) […]
(-CONH2). The rabbits were immunized four times over a four month period, the first with FCA and the subsequent with FIA. The antisera was recovered 2 weeks after the last immunization.
Infection for determination of intracellular ActA levels
Caco-2 cells were seeded into 24 well plates (Corning #356408) and allowed to grow until confluent. Indicated bacterial strains were grown to OD600 = 1, added to CaCo-2 cells at a MOI of 10, centrifuged for 10 min at 800 g and allowed to infect for 30 minutes. […]

[2] = biological target: T1, PrfAWT (Listeria monocytogenes serovar 1/2a, UniProt P22262); assay: Isothermal titration calorimetry (ITC), binding to purified PrfAWT
T1 construct: followed by residues Glu7-N237; vector-derived N-terminal tail […]; (left after thrombin cleavage; inferred from pET28a and Ni-NTA capture), removed by thrombin (N, cleaved yes); made in house; host or cells: E. coli BL21(DE3)

[3] = biological target: T2, PrfAWT binding to hly-DNA (Listeria monocytogenes serovar 1/2a, UniProt P22262); assay: SPR, binding of compound-pre-incubated PrfAWT to hly-promoter DNA; type: biochemical; settings: 200 nM protein, 37°C, read-out: IC50, reduction of binding of PrfAWT to hly-DNA
T2 construct: followed by residues Glu7-N237; vector-derived N-terminal tail […]; (left after thrombin cleavage; inferred from pET28a and Ni-NTA capture), removed by thrombin (N, cleaved yes); made in house; host or cells: E. coli BL21(DE3)

[4] = system: L. monocytogenes strain EGDe (WT) uptake by HeLa cells; type: cell-based, Listeria monocytogenes; settings: 10 and 1 μM, viable count
Source text: (§2) Figure 1 Ring-Fused 2-Pyridones Inhibit L. monocytogenes Uptake by Cultured Cells (A) Relative uptake (%) compared with control as determined by viable count measurements. […] All samples were correlated to the DMSO control (C, gray bar), which was arbitrarily set at 100%. Error bars show SDs. […] See also Figure S1. […] Error bars show SDs.

[5] = system: L. monocytogenes carrying PrfAWT in Caco-2 cells; assay: Time-course infection of Caco-2 cells, strain carrying PrfAWT; type: cell-based, Listeria monocytogenes; settings: viable counts, 50 μM / 100 μM
Source text: as §2

[6] = system: L. monocytogenes strain F2365 uptake into Caco-2 cells; assay: Uptake of L. monocytogenes strain F2365 into Caco-2 cells; type: cell-based, Listeria monocytogenes; settings: 50 μM, 2 hr
Procedure: Protein extracts were isolated from indicated L. monocytogenes strain in the absence (C, equivalent volume DMSO) or presence of 100 μM of 1 and the specified proteins (LLO PrfA, or P60 (control)) were detected by western blot using specific antibodies. […] (B) Compound 2 inhibits the uptake of an L. monocytogenes strain of serovar 4b. L. monocytogenes strain F2365 was allowed to infect Caco-2 cells for 2 hr with 2 (50 μM). All samples were correlated to the DMSO-treated control (C, gray bar) which was arbitrarily set at 100%. Error bars show SDs.

[7] = system: LLO and ActA expression in L. monocytogenes; assay: Western blot of virulence protein levels (LLO, ActA, PrfA, P60), EGDe; type: cell-based, Listeria monocytogenes; settings: for expression of LLO and ActA (protein): 100 μM; for PrfA expression (protein): across all concentrations
Procedure: as §1
A detailed procedure is provided in the Supplemental Experimental Procedures.
concentration of 0.1% DMSO. […] The
incubated on ice for 1 h.
washed in 80% ice cold acetone.
Subsequently the samples were centrifuged and the
added lysozyme and DNase.
secondary antibodies (Dako P0260).

[8] = biological target: the molecule itself; assay: crystal structure

## Cc1ccc(Cc2cc(=O)n3c(c2C2CC2)SC[C@H]3C(=O)O)c2ccccc12 [compound 2]
[1]
  induction of intracellular ActA levels: weakened in compound-treated cells, although not completely abolished
[2]
  binding stoichiometry per monomer of homodimeric PrfA: 1 to 1
[3]
  IC50: 6 to 7 µM
[4]
  L. monocytogenes uptake relative to untreated controls: reducing the level of L. monocytogenes uptake
[5]
  replication of L. monocytogenes (PrfAWT) within Caco-2 cells: inability of L. monocytogenes to replicate; also recorded: unable to replicate
[6]
  uptake of the F2365 strain into Caco-2 cells: effectively inhibited uptake
[7]
  expression of LLO and ActA (protein): abolished
  PrfA expression (protein): remained unchanged
[7]; dose dependent
  concentration down to which LLO and ActA levels were decreased: ≤ 3.3 µM

## O=C(O)[C@@H]1CSc2c(C3CC3)c(Cc3cnc4ccccc4c3)cc(=O)n21 [compound 3]
[2]
  binding stoichiometry per monomer of homodimeric PrfA: 1 to 1
[3]
  IC50: ~30 µM
[4]
  L. monocytogenes uptake relative to untreated controls: consistently failed to attenuate uptake
[7]
  expression of LLO and ActA (protein): did not reduce LLO or ActA expression
  PrfA expression (protein): remained unchanged

B1: PrfA wild type (transcriptional activator PrfA of Listeria monocytogenes) (natural protein)
chain: MNAQAEEFKKYLETNGIKPKQFHKKELIFNQWDPQEYCIFLYDGITKLTSISENGTIMNLQYYKGAFVIMSGFIDTETSVGYYNLEVISEQATAYVIKINELKELLSKNLTHFFYVFQTLQKQVSYSLAKFNDFSINGKLGSICGQLLILTYVYGKETPDGIKITLDNLTMQELGYSSGIAHSSAVSRIISKLKQEKVIVYKNSCFYVQNLDYLKRYAPKLDEWFYLACPATWGKLN
notes: also called PrfAWT; source: purified PrfA protein
[8]
  stoichiometry N: 2
